The test system of series [1] is TNBCs and their metastases. Nature of the series: Stopping the growth of TNBCs and their metastases. Conditions: statement in words, no data shown.
Series [2] is described as follows: Ability to cross the blood-brain-barrier. The settings on record: statement in words, no data shown.

Consider `COc1ccc(C(CCCCNC(=O)Nc2ccc(Cl)c([N+](=O)[O-])c2)c2ccc(OC)cc2)cc1` [1-(5,5-bis(4-methoxyphenyl)pentyl)-3-(4-chloro-3-nitrophenyl)urea], for which the “stopping the growth of TNBCs and their metastases” value in series [1] was “effective in stopping the growth of TNBCs and their metastases”. Besides, the “ability to cross the blood-brain-barrier (BBB)” value in series [2] is listed as “shows the ability to cross the blood-brain-barrier”.
